Measured values: US10166229B2, “Compounds and methods for the treatment of cancer” (The Board of Trustees of the University of Illinois, priority 2005, dated 2019)

Key:
procaspase-3 [1] = molecular target: T1, procaspase-3 (Homo sapiens (Human), UniProt P42574); test: In vitro activation of purified procaspase-3 (activation curves, Ac-DEVD-pNA); format: biochemical; settings: for EC50: Table 3, read-out: EC50 (μM) for procaspase-3 activation; for Activity (direct activation of purified procaspase-3 in vitro): Table 2
T1 sequence (P42574 whole entry): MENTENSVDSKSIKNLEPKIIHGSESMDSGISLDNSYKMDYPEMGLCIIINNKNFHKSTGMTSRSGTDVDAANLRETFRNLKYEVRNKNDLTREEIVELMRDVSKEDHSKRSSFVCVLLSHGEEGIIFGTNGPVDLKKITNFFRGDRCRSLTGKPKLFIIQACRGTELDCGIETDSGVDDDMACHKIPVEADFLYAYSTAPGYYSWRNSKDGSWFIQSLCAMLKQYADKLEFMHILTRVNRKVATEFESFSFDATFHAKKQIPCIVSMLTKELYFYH
Experimental: Activation curves. […] The plate was read every 2 minutes at 405 nm for 2 hours in a Spectra Max Plus 384 well plate reader. The slope of the linear portion for each well was determined and the fold increase in activation from non-treated control wells was calculated. […]

HL-60 cells [2] = test: Cell death induction IC50 (MTS) in HL-60; format: cell-based, human
HL-60 cell line = test: IC50 of PAC-1 derivatives in HL-60 cell line (Table 5); format: cell-based; settings: for Fold better than PAC-1: HL-60 IC50 relative to PAC-1; for IC50: Homo sapiens, HL-60, Table 5
From the text: The results are indicated in Table 5 (where L- and R-designations refer to structures shown in the AX and BX series above, respectively).

[3] = tested on: NCI-H226 lung cancer cell line; test: Cell death IC50 (MTS) in NCI-H226; format: cell-based; settings: etoposide, 24 hours; read-out: IC50 for inducing death, NCI-H226
[4] = tested on: UACC-62 melanoma cell line; test: Cell death IC50 (MTS) in UACC-62; format: cell-based; settings: etoposide, 24 hours; read-out: IC50 for inducing death, UACC-62
[5] = tested on: CRL-1872 melanoma cell line; test: Cell death IC50 (MTS) in CRL-1872; format: cell-based; settings: etoposide, 24 hours; read-out: IC50 for inducing death, CRL-1872
[6] = tested on: B16-F10 melanoma cell line; test: Cell death IC50 (MTS) in B16-F10; format: cell-based; settings: etoposide, 24 hours; read-out: IC50 for inducing death, B16-F10
[7] = tested on: Hs 578t breast cancer cell line; test: Cell death IC50 (MTS) in Hs 578t; format: cell-based; settings: etoposide, 24 hours; read-out: IC50 for inducing death, Hs 578t
U-937 = test: Cell death IC50 (MTS) in U-937; format: cell-based; settings: etoposide, 24 hours; read-out: IC50 for inducing death, U-937
SK-N-SH = test: Cell death IC50 (MTS) in SK-N-SH; format: cell-based; settings: etoposide, 24 hours; read-out: IC50 for inducing death, SK-N-SH
PC-12 = test: Cell death IC50 (MTS) in PC-12; format: cell-based; settings: etoposide, 24 hours; read-out: IC50 for inducing death, PC-12
procaspase-3 [8] = molecular target: T1, procaspase-3; test: Western blot of in vitro procaspase-3 activation by DX compounds; format: biochemical; settings: 50 micromolar compound, about 35 nanomolar procaspase-3, 8 hr
Experimental: Certain compounds were also tested for the ability to effect in vitro activation of procaspase-3.

HL-60 cells [9] = test: Apoptosis induction assay in HL-60 cells, 72 hrs (Table 6); format: cell-based
Experimental: Compounds DX1-DX17 were tested using the HL-60 cell line for the ability to effect apoptosis, and IC50 values were determined. Activity levels of compounds from assays of 72 hrs duration with HL-60 cells are shown in Table 6 and along with structures in FIG. 12.

[10] = Homo sapiens, HL-60, Table 3, read-out: IC50 (μM) for death induction in HL-60 cells

CCOC(=O)CN1CCN(Cc2ccccc2)CC1
EC50 (procaspase-3 [1]): > 50 µM | IC50 (HL-60 cells [2]; [10]): > 100 µM

c1ccc(CN2CCNCC2)cc1 [Compound 2]
Activity (direct activation of purified procaspase-3 in vitro) (procaspase-3 [1]): Inactive

CC(C)(C)c1cc(/C=N/NC(=O)CN2CCN(Cc3ccccc3)CC2)c(O)c(C(C)(C)C)c1 [Compound L01R06]
Fold better than PAC-1 (HL-60 cell line): 9.7-fold | IC50 (HL-60 cell line): 5.63 µM

O=C(CN1CCN(Cc2ccccc2)CC1)N/N=C/c1ccccc1 [Compound 7]
Activity (direct activation of purified procaspase-3 in vitro) (procaspase-3 [1]): Inactive

O=C(CN1CCNCC1)N/N=C/c1ccccc1O
EC50 (procaspase-3 [1]): > 50 µM | IC50 (HL-60 cells [2]; [10]): > 100 µM

CC(C)(C)c1cc(/C=N/NC(=O)CN2CCN(Cc3ccc(OCc4ccccc4)c(OCc4ccccc4)c3)CC2)c(O)c(C(C)(C)C)c1 [Compound L09R06]
Fold better than PAC-1 (HL-60 cell line): 13.1-fold | IC50 (HL-60 cell line): 4.17 µM

CC(C)(C)c1cc(/C=N/NC(=O)CN2CCN(Cc3ccc(CCc4ccccc4)cc3)CC2)c(O)c(C(C)(C)C)c1 [Compound L08R06]
Fold better than PAC-1 (HL-60 cell line): 10.3-fold | IC50 (HL-60 cell line): 5.31 µM

O=C(CN1CCN(Cc2ccccc2)CC1)N/N=C/c1ccccc1 [drawing 26]
EC50 (procaspase-3 [1]): > 50 µM | IC50 (HL-60 cells [2]; [10]): > 100 µM

NNC(=O)CN1CCN(Cc2ccccc2)CC1 [Compound 4]
Activity (direct activation of purified procaspase-3 in vitro) (procaspase-3 [1]): Inactive

c1ccc(CN2CCNCC2)cc1 [drawing 33]
EC50 (procaspase-3 [1]): > 50 µM | IC50 (HL-60 cells [2]; [10]): > 100 µM

NNC(=O)CN1CCN(Cc2ccccc2)CC1 [drawing 29]
EC50 (procaspase-3 [1]): > 50 µM | IC50 (HL-60 cells [2]; [10]): > 100 µM

O=C(CN1CCN(Cc2ccc(OCc3ccccc3)c(OCc3ccccc3)c2)CC1)N/N=C/c1c(O)ccc2ccccc12 [Compound L09R08]
Fold better than PAC-1 (HL-60 cell line): 22.6-fold | IC50 (HL-60 cell line): 2.42 µM

C=CCc1cccc(/C=N/NC(=O)CN2CCN(Cc3ccc(OCc4ccccc4)c(OCc4ccccc4)c3)CC2)c1O [Compound L09R03]
Fold better than PAC-1 (HL-60 cell line): 11.3-fold | IC50 (HL-60 cell line): 4.82 µM

CN1CCN(CC(=O)N/N=C/c2ccccc2O)CC1 [Compound 6]
Activity (direct activation of purified procaspase-3 in vitro) (procaspase-3 [1]): Inactive

COc1cc([C@@H]2c3cc4c(cc3[C@@H](O[C@@H]3O[C@@H]5CO[C@@H](C)O[C@H]5[C@H](O)[C@H]3O)[C@H]3COC(=O)[C@H]23)OCO4)cc(OC)c1O [etoposide]
IC50 [3]: > 50 µM | IC50 [4]: > 50 µM | IC50 [5]: > 50 µM | IC50 [6]: > 50 µM | IC50 [7]: > 50 µM | IC50 (HL-60 cells [2]; etoposide, 24 hours, read-out: IC50 for inducing death, HL-60): < 1 µM | IC50 (U-937): < 1 µM | IC50 (SK-N-SH): < 1 µM | IC50 (PC-12): < 1 µM

CCOC(=O)CN1CCNCC1
EC50 (procaspase-3 [1]): > 50 µM | IC50 (HL-60 cells [2]; [10]): > 100 µM

C=CCc1cccc(/C=N/NC(=O)CN2CCN(Cc3ccc(C(C)(C)C)cc3)CC2)c1O [Compound L02R03]
Fold better than PAC-1 (HL-60 cell line): 12.6-fold | IC50 (HL-60 cell line): 4.34 µM

c1ccc(CN2CCN(Cc3ccccc3)CC2)cc1
EC50 (procaspase-3 [1]): > 50 µM | IC50 (HL-60 cells [2]; [10]): > 100 µM

CC(C)(C)c1ccc(CN2CCN(CC(=O)N/N=C/c3cc(C(C)(C)C)cc(C(C)(C)C)c3O)CC2)cc1 [Compound L02R06]
Fold better than PAC-1 (HL-60 cell line): 8.4-fold | IC50 (HL-60 cell line): 6.53 µM

C/C=N/NC(=O)CN1CCN(Cc2ccccc2)CC1
EC50 (procaspase-3 [1]): > 50 µM | IC50 (HL-60 cells [2]; [10]): > 100 µM

C=CCc1cccc(/C=N/NC(=O)CN2CCC(Cc3ccccc3)CC2)c1O [DX11]
in vitro activation of procaspase-3 (Western blot) relative to control (procaspase-3 [8]): substantial activity levels | IC50 (HL-60 cells [9]): 3.2 µM

O=C(CN1CCN(Cc2ccccc2)CC1)N/N=C/c1ccccc1O [de-allyl PAC-1]
IC50 (HL-60 cells [9]; Homo sapiens): 8.7 µM
